Results published in patent US9920038B2, “Methyl oxazole orexin receptor antagonists” (MERCK SHARP & DOHME CORP., priority 2014, dated 2018).

Columns and labels:
hOX1R = hOX1R (Homo sapiens, UniProt O43613); assay: hOX1R FLIPR Ca2+ flux assay; assay type: cell-based; conditions: CHO cells expressing orexin-1 receptor; agonist 70 pM Ala-6,12 orexin-A; read-out: hOX1R FLIPR IC50
human orexin-2 receptor = human orexin-2 receptor (Homo sapiens (Human), UniProt O43614); assay: hOX2R FLIPR Ca2+ flux assay; assay type: cell-based; conditions: CHO cells expressing human orexin-2 receptor; agonist 70 pM Ala-6,12 orexin-A
Sequence of human orexin-2 receptor (O43614 whole entry): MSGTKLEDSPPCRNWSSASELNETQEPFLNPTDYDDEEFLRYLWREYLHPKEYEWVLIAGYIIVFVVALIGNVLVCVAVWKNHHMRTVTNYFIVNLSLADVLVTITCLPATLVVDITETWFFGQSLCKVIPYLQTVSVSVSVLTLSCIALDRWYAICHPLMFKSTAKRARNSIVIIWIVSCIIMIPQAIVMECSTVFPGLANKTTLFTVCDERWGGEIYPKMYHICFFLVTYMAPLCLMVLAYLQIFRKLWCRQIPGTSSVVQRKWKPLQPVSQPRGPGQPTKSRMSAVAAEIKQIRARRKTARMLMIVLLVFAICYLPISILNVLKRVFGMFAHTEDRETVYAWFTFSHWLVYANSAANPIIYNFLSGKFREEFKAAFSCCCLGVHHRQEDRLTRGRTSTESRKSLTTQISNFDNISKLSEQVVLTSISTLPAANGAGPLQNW
Method: In a typical experiment the OX1 and OX2 receptor antagonistic activity of the compounds of the present invention was determined in accordance with the following experimental method. For intracellular calcium measurements, Chinese hamster ovary (CHO) cells expressing the rat orexin-1 receptor or the human orexin-2 receptor, are grown in Iscove's modified DMEM containing 2 mM L-glutamine, […], 1% hypoxanthine-thymidine supplement, 100 U/ml penicillin, 100 μg/ml streptomycin and 10% heat-inactivated fetal calf serum (FCS). The cells are seeded at 20,000 cells/well into Becton-Dickinson black 384-well clear bottom sterile plates coated with poly-D-lysine. All reagents were from GIBCO-Invitrogen Corp. The seeded plates are incubated overnight at 37° C. and 5% CO2. Ala-6,12 human orexin-A as the agonist is prepared as a 1 mM stock solution in 1% bovine serum albumin (BSA) and diluted in assay buffer (HBSS containing 20 mM HEPES, 0.1% BSA and 2.5 mM probenecid, pH7.4) for use in the assay at a final concentration of 70 pM. Test compounds are prepared as 10 mM stock solution in DMSO, then diluted in 384-well plates, first in DMSO, then assay buffer. On the day of the assay, cells are washed 3 times with 100 μl assay buffer and then incubated for 60 min (37° C., 5% CO2) in 60 μl assay buffer containing […] Fluo-4AM ester, 0.02% pluronic acid, and 1% BSA. The dye loading solution is then aspirated and cells are washed 3 times with 100 μl assay buffer. 30 μl of that same buffer is left in each well. Within the Fluorescent Imaging Plate Reader (FLIPR, Molecular Devices), test compounds are added to the plate in a volume of 25 μl, incubated for 5 min and finally 25 μl of agonist is added. Fluorescence is measured for each well at 1 second intervals for 5 minutes and the height of each fluorescence peak is compared to the height of the fluorescence peak induced by 70 pM Ala-6,12 orexin-A with buffer in place of antagonist. For each antagonist, IC50 value (the concentration of compound needed to inhibit 50% of the agonist response) is determined. Alternatively, compound potency can be assessed by a radioligand binding assay (described in Bergman et. al. Bioorg. Med. Chem. Lett. 2008, 18, 1425-1430) in which the inhibition constant (Ki) is determined in membranes prepared from CHO cells expressing either the OX1 or OX2 receptor. The intrinsic orexin receptor antagonist activity of a compound which may be used in the present invention may be determined by these assays.

SMILES	IC50 (hOX1R) [nM]	IC50 (human orexin-2 receptor) [nM]
Cc1oc(C[C@H]2CCCCN2C(=O)c2ccccc2-n2ncnn2)nc1C(C)(C)O [Example 28, (R)-(2-(2H-tetrazol-2-yl)phenyl)(2-((4-(2-hydroxypropan-2-yl)-5-methyloxazol-2-yl)methyl)piperidin-1-yl)methanone]	486	152
COc1ccc(C(=O)N2CCCC[C@@H]2Cc2nc(C(C)(C)O)c(C)o2)c(C2CC2)n1 [Example 19, (R)-(2-cyclopropyl-6-methoxypyridin-3-yl)(2-((4-(2-hydroxypropan-2-yl)-5-methyloxazol-2-yl)methyl)piperidin-1-yl)methanone]	2310	503
Cc1oc(C[C@H]2CCCCN2C(=O)c2ccccc2OCC(F)(F)F)nc1C(C)(C)O [Example 17, (R)-(2-((4-(2-hydroxypropan-2-yl)-5-methyloxazol-2-yl)methyl)piperidin-1-yl)(2-(2,2,2-trifluoroethoxy)phenyl)methanone]	952	99
Cc1oc(C[C@H]2CCCCN2C(=O)c2ccccc2N2CCCC2)nc1C(C)(C)O [Example 7, (R)-(2-((4-(2-hydroxypropan-2-yl)-5-methyloxazol-2-yl)methyl)piperidin-1-yl)(2-(pyrrolidin-1-yl)phenyl)methanone]	67	51
Cc1oc(C[C@H]2CCCCN2C(=O)c2nccnc2-c2ccccn2)nc1C(C)(C)O [Example 22, (R)-(2-((4-(2-hydroxypropan-2-yl)-5-methyloxazol-2-yl)methyl)piperidin-1-yl)(3-(pyridin-2-yl)pyrazin-2-yl)methanone]	2930	558
Cc1oc(C[C@H]2CCCCN2C(=O)c2ccccc2OC(F)(F)F)nc1C(C)(C)O [Example 9, (R)-(2-((4-(2-hydroxypropan-2-yl)-5-methyloxazol-2-yl)methyl)piperidin-1-yl)(2-(trifluoromethoxy)phenyl) methanone]	348	109
Cc1oc(C[C@H]2CCCCN2C(=O)c2ccccc2-n2nccn2)nc1C(C)(C)O [Example 1, (R)-(2-(2H-1,2,3-triazol-2-yl)phenyl)(2-((4-(2-hydroxypropan-2-yl)-5-methyloxazol-2-yl)methyl)piperidin-1-yl)methanone]	18	14
Cc1oc(C[C@H]2CCCCN2C(=O)c2ncccc2-c2ccccc2)nc1C(C)(C)O [Example 25, (R)-(2-((4-(2-hydroxypropan-2-yl)-5-methyloxazol-2-yl)methyl)piperidin-1-yl)(3-phenylpyridin-2-yl)methanone]	240	127
CCCc1ccccc1C(=O)N1CCCC[C@@H]1Cc1nc(C(C)(C)O)c(C)o1 [Example 29, (R)-(2-((4-(2-hydroxypropan-2-yl)-5-methyloxazol-2-yl)methyl)piperidin-1-yl)(2-propylphenyl)methanone]	794	106
Cc1oc(C[C@H]2CCCCN2C(=O)c2ccccc2C2CCC2)nc1C(C)(C)O [Example 24, (R)-(2-cyclobutylphenyl)(2-((4-(2-hydroxypropan-2-yl)-5-methyloxazol-2-yl)methyl)piperidin-1-yl)methanone]	184	114
Cc1oc(C[C@H]2CCCCN2C(=O)c2nccnc2-n2cccn2)nc1C(C)(C)O [Example 26, (R)-(3-(1H-pyrazol-1-yl)pyrazin-2-yl)(2-((4-(2-hydroxypropan-2-yl)-5-methyloxazol-2-yl)methyl)piperidin-1-yl)methanone]	1410	186
Cc1oc(C[C@H]2CCCCN2C(=O)c2ncccc2-n2nccn2)nc1C(C)(C)O [Example 21, (R)-(3-(2H-1,2,3-triazol-2-yl)pyridin-2-yl)(2-((4-(2-hydroxypropan-2-yl)-5-methyloxazol-2-yl)methyl)piperidin-1-yl)methanone]	1850	225
Cc1oc(C[C@H]2CCCCN2C(=O)c2ccccc2CC(F)F)nc1C(C)(C)O [Example 12, (R)-(2-(2,2-difluoroethyl)phenyl)(2-((4-(2-hydroxypropan-2-yl)-5-methyloxazol-2-yl)methyl)piperidin-1-yl)methanone]	2180	98
CCOc1ncccc1C(=O)N1CCCC[C@@H]1Cc1nc(C(C)(C)O)c(C)o1 [Example 2, (R)-(2-ethoxypyridin-3-yl)(2-((4-(2-hydroxypropan-2-yl)-5-methyloxazol-2-yl)methyl)piperidin-1-yl)methanone]	152	20
Cc1oc(C[C@H]2CCCCN2C(=O)c2ccccc2-n2cccn2)nc1C(C)(C)O [Example 10, (R)-(2-(1H-pyrazol-1-yl)phenyl)(2-((4-(2-hydroxypropan-2-yl)-5-methyloxazol-2-yl)methyl)piperidin-1-yl)methanone]	129	51
Cc1oc(C[C@H]2CCCCN2C(=O)c2ccccc2C2CC2(F)F)nc1C(C)(C)O (stereo partly drawn) [Example 27, (2-(2,2-difluorocyclopropyl)phenyl)((R)-2-((4-(2-hydroxypropan-2-yl)-5-methyloxazol-2-yl)methyl)piperidin-1-yl)methanone]	473	38
Cc1oc(C[C@H]2CCCCN2C(=O)c2ccccc2CC(F)(F)F)nc1C(C)(C)O [Example 18, (R)-(2-((4-(2-hydroxypropan-2-yl)-5-methyloxazol-2-yl)methyl)piperidin-1-yl)(2-(2,2,2-trifluoroethyl)phenyl)-methanone]	1690	118
Cc1oc(C[C@H]2CCCCN2C(=O)c2nccnc2N2CCCC2)nc1C(C)(C)O [Example 23, (R)-(2-((4-(2-hydroxypropan-2-yl)-5-methyloxazol-2-yl)methyl)piperidin-1-yl)(3-(pyrrolidin-1-yl)pyrazin-2-yl)methanone]	> 10000	> 10000
Cc1oc(C[C@H]2CCCCN2C(=O)c2cccnc2OCC(F)(F)F)nc1C(C)(C)O [Example 5, (R)-(2-((4-(2-hydroxypropan-2-yl)-5-methyloxazol-2-yl)methyl)piperidin-1-yl)(2-(2,2,2-trifluoroethoxy)pyridin-3-yl)methanone]	162	19
Cc1oc(C[C@H]2CCCCN2C(=O)c2cccnc2OC(C)C)nc1C(C)(C)O [Example 6, (R)-(2-((4-(2-hydroxypropan-2-yl)-5-methyloxazol-2-yl)methyl)piperidin-1-yl)(2-isopropoxypyridin-3-yl)methanone]	223	36
Cc1oc(C[C@H]2CCCCN2C(=O)c2ccccc2OCC(F)F)nc1C(C)(C)O [Example 20, (R)-(2-(2,2-difluoroethoxy)phenyl)(2-((4-(2-hydroxypropan-2-yl)-5-methyloxazol-2-yl)methyl)piperidin-1-yl)methanone]	690	112
Cc1oc(C[C@H]2CCCCN2C(=O)c2ccccc2OC(F)F)nc1C(C)(C)O [Example 15, (R)-(2-(difluoromethoxy)phenyl)(2-((4-(2-hydroxypropan-2-yl)-5-methyloxazol-2-yl)methyl)piperidin-1-yl)methanone]	1090	98
Cc1oc(C[C@H]2CCCCN2C(=O)c2cccnc2-n2cccn2)nc1C(C)(C)O [Example 13, (R)-(2-(1H-pyrazol-1-yl)pyridin-3-yl)(2-((4-(2-hydroxypropan-2-yl)-5-methyloxazol-2-yl)methyl)piperidin-1-yl)methanone]	51	24
Cc1oc(C[C@H]2CCCCN2C(=O)c2cccnc2CC(F)(F)F)nc1C(C)(C)O [Example 11, (R)-(2-((4-(2-hydroxypropan-2-yl)-5-methyloxazol-2-yl)methyl)piperidin-1-yl)(2-(2,2,2-trifluoroethyl)pyridin-3-yl)methanone]	> 10000	–
Cc1oc(C[C@H]2CCCCN2C(=O)c2ccccc2-c2ncccn2)nc1C(C)(C)O [Example 31, (R)-(2-((4-(2-hydroxypropan-2-yl)-5-methyloxazol-2-yl)methyl)piperidin-1-yl)(2-(pyrimidin-2-yl)phenyl)methanone]	76	47
Cc1oc(C[C@H]2CCCCN2C(=O)c2cccnc2-c2ccccc2)nc1C(C)(C)O [Example 14, (R)-(2-((4-(2-hydroxypropan-2-yl)-5-methyloxazol-2-yl)methyl)piperidin-1-yl)(2-phenylpyridin-3-yl)methanone]	80	38
